Among the data in patent US20220056044A1, “TRICYCLIC COMPOUNDS AS STING AGONISTS, AND PREPARATION METHODS AND MEDICINAL USES THEREOF” (Jiangsu Hengrui Medicine Co., Ltd., priority 2018, published 2022) are EC50 and ΔTm values, retold here.

pEC50: −log10 of the molar value.

In assay [1] the target is T1, STING in THP1-Dual KI-hSTING-R232 cells (Homo sapiens, UniProt Q86WV6, H232R).
T1 construct: host or cells: THP1-Dual KI-hSTING-R232 cells
Nature of the assay: Human THP1 reporter cell assay (IRF luciferase reporter). The assay is classed as cell-based. As to conditions: 24 hours incubation. As for the experimental part: Test Example 2. Human THP1 Reporter Cell Assay
1. Human THP1-Dual KI-hSTING-R232 Cells (InvivoGen, Cat. #thpd-r232)
Activation of STING in THP1-Dual KI-hSTING-R232 cells was determined by measuring the luminescence signal resulting from the expression of the IRF luciferase reporter gene. All reagent preparation and assay procedures were conducted according to the protocols provided by InvivoGen. In brief, test compounds and cells (1×10^5 cells per well) were dispensed into 96-well plates with a final volume per well of 150 μl. Plates were incubated in a humidified, 5% CO2 incubator at 37° C. for 24 hours. The expression level of the reporter gene was measured by transferring 20 μl of the supernatant to a non-transparent 96-well plate to which 50 μl of QUANTI-LUC was dispensed into each well. The resulting luminescence signal was immediately read using a TECAN plate reader. The background luminescence signal from media was subtracted. The fold induction effect of the luminescence signal at each compound concentration was determined relative to controls that lack compound treatment. The plot of fold induction effect versus the log of compound concentration was fit in GraphPad Prism with a 4-parameter concentration response equation to calculate EC50 and Emax.
Activation of STING in THP1 of the compounds in the present invention was determined by the above assay, and EC50 values are shown in the following Table 4.
A general note: A reporter such as luciferase makes a cellular process visible.

For assay [2], the system named is Human PBMC cells. Nature of the assay: IFNβ secretion from human PBMC (ELISA). To be noted: 5 hours incubation, IFNβ in supernatant by ELISA. The assay is classed as cell-based. The method, then: Test Example 3. IFNβ Secretion from Human PBMC
1. Human PBMC cells (STEMCELL Technologies)
Cryopreserved peripheral blood human mononuclear cells (PBMCs) were rapidly thawed and resuspended in Lymphocyte Media and centrifuged at 500×g for 5 minutes. The supernatant was removed and the cell pellets were gently resuspended in cell culture and compound dilution media. Then the cells were plated in a 96-well format at a concentration of 1.5×10^5 per well. The test compounds, at varying concentrations, or vehicle control (<0.3% DMSO) were mixed with the cells giving a final volume of 150 μl per well. The plates were incubated in a humidified, 5% CO2 incubator at 37° C. for 5 hours. After incubation, the human IFNβ in the supernatant and the IFNβ standard controls were measured using human IFNβ Quantikine ELISA kit according to the manufacturer's protocol. The absorbance at 450 nm was measured with Infinite M1000 plate reader and corrected by background reading at 540 nm of each well. The concentration of IFNβ secreted was calculated based on the standard curves. The plot of IFNβ concentration versus the log of compound concentration was fit in GraphPad Prism with a 4-parameter concentration response equation to calculate EC50 and Emax (see Table 5).
On the technique in general: In an ELISA, binding on a coated surface is turned into a signal by an enzyme label.

The target of assay [3] is T2, hSTING R232 c-terminal domain (Homo sapiens, UniProt Q86WV6, H232R).
T2 construct: Purified hSTING R232 (aa154-342)
T2 sequence (Q86WV6 154-342 H232R): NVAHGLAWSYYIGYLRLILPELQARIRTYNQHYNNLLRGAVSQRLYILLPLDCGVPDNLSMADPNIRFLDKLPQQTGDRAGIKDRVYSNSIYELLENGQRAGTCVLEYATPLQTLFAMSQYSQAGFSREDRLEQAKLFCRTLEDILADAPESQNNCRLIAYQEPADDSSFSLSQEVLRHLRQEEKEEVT
The experiment in a line: Thermal shift assay for measuring the relative binding affinity to hSTING R232 c-terminal domain. To be noted: purified hSTING R232 (aa154-342), SYPRO Orange, Tm minus mean Tm of negative control. As for the experimental part: Thermal shift assay for measuring the relative binding affinity to hSTING R232 c-terminal domain.
From each of the 10 mM stock solutions of compounds in DMSO, dilutions are made to create samples with three concentrations 10 mM, 5 mM, and 2.5 mM. From these dilutions a final 50-fold dilution is made into assay buffer, giving concentrations of 200 μM, 100 μM, and 50 μM. From each of the buffer dilutions, 5 μL is added to the 384 well assay plate. A positive control is setup with cGAMP using the same dilution scheme as the ligands. A baseline thermal shift for the negative control is determined using buffer and 2% DMSO.
An aliquot of protein is thawed on ice and SYPRO orange reagent is brought to room temperature. The 5000×SYPRO orange stock is diluted in assay buffer to a concentration of 10×. Protein is diluted to a concentration of 10 μM in the prepared buffer/dye solution. Five micro-liters of protein/buffer/dye solution is added to each of the sample and control wells, and the plate is sealed with the provided films. The plate is centrifuged for 5 min at 20° C. at 1000 rpm.
On the Light Cycler instrument, measurements are made over a temperature gradient from 20° C. to 99° C. at 0.07° C./s and data acquisitions collected at a rate of 8/° C. are used to measure the change in fluorescence as a function of temperature. Data analysis is performed using the Roche Light Cycler Software to determine the melting temperature (Tm ° C.) of each sample. A mean Tm ° C. for the negative control is calculated and subtracted from each of the samples to generate the ΔTm ° C. values for each of the ligands.
The relative binding affinity to hSTING c-terminal domain of the compounds of the present invention was determined by the above assay, and ΔTm ° C. values are shown in the following Table 3.

T1 sequence (Q86WV6 whole entry H232R): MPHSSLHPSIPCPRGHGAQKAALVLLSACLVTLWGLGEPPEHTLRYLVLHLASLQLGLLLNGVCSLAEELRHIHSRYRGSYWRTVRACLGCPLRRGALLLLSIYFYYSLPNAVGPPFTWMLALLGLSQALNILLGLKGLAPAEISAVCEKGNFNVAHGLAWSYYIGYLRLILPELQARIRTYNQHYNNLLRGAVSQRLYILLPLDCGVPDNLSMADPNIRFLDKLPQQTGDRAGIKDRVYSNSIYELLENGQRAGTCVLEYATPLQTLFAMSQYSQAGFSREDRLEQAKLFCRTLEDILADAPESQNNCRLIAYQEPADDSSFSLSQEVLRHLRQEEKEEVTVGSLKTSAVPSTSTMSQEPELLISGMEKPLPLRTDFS

In assay [1], `CCn1nc(C)cc1C(=O)Nc1nc2cc(C(N)=O)cc3c2n1[C@@H](C/C=C/C[C@H]1CN(CCCOC)c2cc(C(N)=O)cc4nc(NC(=O)c5cc(C)nn5CC)n1c24)CN3CCCOC` [Example 11, (4S,4′S)-4,4′-((E)-but-2-ene-1,4-diyl)bis(2-(1-ethyl-3-methyl-1H-pyrazole-5-carboxamido)-6-(3-methoxypropyl)-5,6-dihydro-4H-imidazo[1,5,4-de]quinoxaline-8-carboxamide)] gave a pEC50 of 6.82. In addition, it took 0.19 µM to reach a half-maximal effect in assay [2] (EC50).

As to `CCn1nc(C)cc1C(=O)Nc1nc2cc(C(N)=O)cc3c2n1C(CC=CC[C@H]1COc2cc(C(N)=O)cc4nc(NC(=O)c5cc(C)nn5CC)n1c24)CCCO3` (stereo partly drawn) [Example 8, 10-(4-((S)-7-carbamoyl-2-(1-ethyl-3-methyl-1H-pyrazole-5-carboxamido)-3,4-dihydro-5-oxa-1,2a-diazaacenaphthylen-3-yl)but-2-en-1-yl)-1-(1-ethyl-3-methyl-1H-pyrazole-5-carboxamido)-7,8,9,10-tetrahydro-6-oxa-2,10a-diazacycloocta[cd]indene-4-carboxamide], in assay [1], the pEC50 is 5.19.

As to `CCn1nc(C)cc1C(=O)Nc1nc2cc(C(N)=O)cc3c2n1[C@@H](CCCC[C@H]1COc2cc(C(N)=O)cc4nc(NC(=O)c5cc(C)nn5CC)n1c24)CO3` [Example 5, (3S,3″S)-3,3″-(butane-1,4-diyl)bis(2-(1-ethyl-3-methyl-1H-pyrazole-5-carboxamido)-3,4-dihydro-5-oxa-1,2a-diazaacenaphthylene-7-carboxamide)], the ΔTm at 100 µM in assay [3] stood at 9.1 °C. Also, the pEC50 in assay [1] was 6.37.

In assay [1], `CCn1nc(C)cc1C(=O)Nc1nc2cc(C(N)=O)cc3c2n1[C@@H](C/C=C/C[C@H]1CN(CCCOC)c2cc(C(N)=O)cc4nc(NC(=O)c5cc(C)nn5CC)n1c24)CN3C` [Example 13, (S)-4-((E)-4-((S)-8-carbamoyl-2-(1-ethyl-3-methyl-1H-pyrazole-5-carboxamido)-6-(3-methoxypropyl)-5,6-dihydro-4H-imidazo[1,5,4-de]quinoxalin-4-yl)but-2-en-1-yl)-2-(1-ethyl-3-methyl-1H-pyrazole-5-carboxamido)-6-methyl-5,6-dihydro-4H-imidazo[1,5,4-de]quinoxaline-8-carboxamide] showed a pEC50 of 6.74.

In the case of `CCn1nc(C)cc1C(=O)Nc1nc2cc(C(N)=O)cc3c2n1[C@@H](C/C=C\C[C@H]1CN(CCCOC)c2cc(C(N)=O)cc4nc(NC(=O)c5cc(C)nn5CC)n1c24)CN3CCCOC` [Example 12, (4S,4′S)-4,4′-((Z)-but-2-ene-1,4-diyl)bis(2-(1-ethyl-3-methyl-1H-pyrazole-5-carboxamido)-6-(3-methoxypropyl)-5,6-dihydro-4H-imidazo[1,5,4-de]quinoxaline-8-carboxamide)], the pEC50 in assay [1] is 6.85. In assay [2], the EC50 turned out to be 0.058 µM.

Turning to `CCn1nc(C)cc1C(=O)Nc1nc2cc(C(N)=O)cc3c2n1[C@@H](C/C=C/C[C@H]1COc2cc(C(N)=O)cc4nc(NC(=O)C(C)(C)C)n1c24)CO3` [Example 4, (S)-3-((E)-4-((S)-7-carbamoyl-2-(1-ethyl-3-methyl-1H-pyrazole-5-carboxamido)-3,4-dihydro-5-oxa-1,2a-diazaacenaphthylen-3-yl)but-2-en-1-yl)-2-pivalamido-3,4-dihydro-5-oxa-1,2a-diazaacenaphthylene-7-carboxamide], the ΔTm at 100 µM in assay [3] amounted to 7.5 °C. Besides, the pEC50 in assay [1] was 4.94.

As for `CCn1nc(C)cc1C(=O)Nc1nc2cc(C(N)=O)cc3c2n1C(CC=CCC1CCCOc2cc(C(N)=O)cc4nc(NC(=O)c5cc(C)nn5CC)n1c24)CCCO3` (centres unmarked) [Example 7, 10,10″-(but-2-ene-1,4-diyl)bis(1-(1-ethyl-3-methyl-1H-pyrazole-5-carboxamido)-7,8,9,10-tetrahydro-6-oxa-2,10a-diazacycloocta[cd]indene-4-carboxamide)], in assay [3], the ΔTm at 100 µM amounted to 6.2 °C.

On to `CCn1nc(C)cc1C(=O)Nc1nc2cc(C(N)=O)cc3c2n1[C@@H](C/C=C\C[C@H]1COc2cc(C(N)=O)cc4nc(NC(=O)c5cc(C)nn5CC)n1c24)CO3` [Example 2, (3S,3″S)-3,3″-((Z)-but-2-ene-1,4-diyl)bis(2-(1-ethyl-3-methyl-1H-pyrazole-5-carboxamido)-3,4-dihydro-5-oxa-1,2a-diazaacenaphthylene-7-carboxamide)], for which, in assay [3], the ΔTm at 100 µM worked out at 12.2 °C. Also, the pEC50 in assay [1] is 8.22. Besides, the midpoint of the response in assay [2], the EC50, lay at 0.026 µM.

Take `CCn1nc(C)cc1C(=O)Nc1nc2cc(C(N)=O)cc3c2n1[C@@H](C/C=C/C[C@H]1COc2cc(C(N)=O)cc4nc(NC(=O)c5cc(C)nn5CC)n1c24)CO3` [Example 1, (3S,3″S)-3,3″-((E)-but-2-ene-1,4-diyl)bis(2-(1-ethyl-3-methyl-1H-pyrazole-5-carboxamido)-3,4-dihydro-5-oxa-1,2a-diazaacenaphthylene-7-carboxamide)]: the ΔTm at 100 µM in assay [3] stood at 14.6 °C. This molecule had a pEC50 in assay [1] of 6.70. The molecule also had an EC50 in assay [2] of 0.22 µM.

In the case of `CCn1nc(C)cc1C(=O)Nc1nc2cc(C(N)=O)cc3c2n1[C@@H](C/C=C/C[C@H]1CN(C)c2cc(C(N)=O)cc4nc(NC(=O)c5cc(C)nn5CC)n1c24)CN3C` [Example 9, (4S,4′S)-4,4′-((E)-but-2-ene-1,4-diyl)bis(2-(1-ethyl-3-methyl-1H-pyrazole-5-carboxamido)-6-methyl-5,6-dihydro-4H-imidazo[1,5,4-de]quinoxaline-8-carboxamide)], in assay [1], the pEC50 was 7.27. In assay [2], the EC50 came out at 0.14 µM.

On to `CCn1nc(C)cc1C(=O)Nc1nc2cc(C(=O)O)cc3c2n1[C@@H](C/C=C/C[C@H]1COc2cc(C(=O)O)cc4nc(NC(=O)c5cc(C)nn5CC)n1c24)CO3` [Example 3, (3S,3″S)-3,3″-((E)-but-2-ene-1,4-diyl)bis(2-(1-ethyl-3-methyl-1H-pyrazole-5-carboxamido)-3,4-dihydro-5-oxa-1,2a-diazaacenaphthylene-7-carboxylic acid)], for which the ΔTm at 100 µM in assay [3] is 5.9 °C.

In turn, `CCn1nc(C)cc1C(=O)Nc1nc2cc(C(N)=O)cc3c2n1[C@@H](C/C=C\C[C@H]1CN(C)c2cc(C(N)=O)cc4nc(NC(=O)c5cc(C)nn5CC)n1c24)CN3C` [Example 10, (4S,4′S)-4,4′-((Z)-but-2-ene-1,4-diyl)bis(2-(1-ethyl-3-methyl-1H-pyrazole-5-carboxamido)-6-methyl-5,6-dihydro-4H-imidazo[1,5,4-de]quinoxaline-8-carboxamide)] gave a pEC50 in assay [1] of 7.92. The EC50 in assay [2] stood at 0.05 µM.

`CCn1nc(C)cc1C(=O)Nc1nc2cc(C(N)=O)cc3c2n1[C@@H](C/C=C\C[C@H]1CN(CCCOC)c2cc(C(N)=O)cc4nc(NC(=O)c5cc(C)nn5CC)n1c24)CN3C` [Example 14, (S)-4-((Z)-4-((S)-8-carbamoyl-2-(1-ethyl-3-methyl-1H-pyrazole-5-carboxamido)-6-(3-methoxypropyl)-5,6-dihydro-4H-imidazo[1,5,4-de]quinoxalin-4-yl)but-2-en-1-yl)-2-(1-ethyl-3-methyl-1H-pyrazole-5-carboxamido)-6-methyl-5,6-dihydro-4H-imidazo[1,5,4-de]quinoxaline-8-carboxamide] gave a pEC50 in assay [1] of 7.22.

One may read the pEC50 as the EC50 on a negative log10 scale, so that one unit is a factor of ten. Low values mean a high EC50, high ones a low EC50. Broadly, the EC50 is the midpoint of the concentration-response curve. Low values mean higher potency in that assay, high ones lower potency in that assay. What is called ΔTm is the shift of the melting midpoint relative to a reference.
